Measurements reported in US20240139158A1, “METHODS OF TREATING PULMONARY DISEASES AND DISORDERS” (Proteostasis Therapeutics, Inc., priority 2015, published 2024).

Target: T1, CFTR, genotype Non-CF (“wild-type”/“wild-type”) (Homo sapiens, UniProt P13569)
T1 construct: Non-CF; endogenous in cells
Experiment: Activity by CFTR genotype with compound A (Example 79, Table 2)
Format: cell-based
Conditions: Relative Activity of 100% = Vehicle treated, 10 uM
Description: Table 2 indicates mutation type and activity with compounds/combination with compound A. ## indicates activity at 30 uM of 50% to <100% of the indicated relative activity treatment, #### indicates activity at 30 uM of ≥150% of the indicated relative activity treatment, + indicates activity at 10 uM of 15% to <50% of the indicated relative activity treatment, ++ indicates activity at 10 uM of 50% to <100% of the indicated relative activity treatment, +++ indicates activity at 10 uM of 100% to <150% of the indicated relative activity treatment, ++++ indicates activity at 10 uM of >150% of the indicated relative activity treatment. NB124 is used at 250 ug/ml, ivacaftor is used at 1 uM, lumacaftor is used at 3 uM, and VX-661 is used at 3 uM.

T1 sequence (P13569 whole entry): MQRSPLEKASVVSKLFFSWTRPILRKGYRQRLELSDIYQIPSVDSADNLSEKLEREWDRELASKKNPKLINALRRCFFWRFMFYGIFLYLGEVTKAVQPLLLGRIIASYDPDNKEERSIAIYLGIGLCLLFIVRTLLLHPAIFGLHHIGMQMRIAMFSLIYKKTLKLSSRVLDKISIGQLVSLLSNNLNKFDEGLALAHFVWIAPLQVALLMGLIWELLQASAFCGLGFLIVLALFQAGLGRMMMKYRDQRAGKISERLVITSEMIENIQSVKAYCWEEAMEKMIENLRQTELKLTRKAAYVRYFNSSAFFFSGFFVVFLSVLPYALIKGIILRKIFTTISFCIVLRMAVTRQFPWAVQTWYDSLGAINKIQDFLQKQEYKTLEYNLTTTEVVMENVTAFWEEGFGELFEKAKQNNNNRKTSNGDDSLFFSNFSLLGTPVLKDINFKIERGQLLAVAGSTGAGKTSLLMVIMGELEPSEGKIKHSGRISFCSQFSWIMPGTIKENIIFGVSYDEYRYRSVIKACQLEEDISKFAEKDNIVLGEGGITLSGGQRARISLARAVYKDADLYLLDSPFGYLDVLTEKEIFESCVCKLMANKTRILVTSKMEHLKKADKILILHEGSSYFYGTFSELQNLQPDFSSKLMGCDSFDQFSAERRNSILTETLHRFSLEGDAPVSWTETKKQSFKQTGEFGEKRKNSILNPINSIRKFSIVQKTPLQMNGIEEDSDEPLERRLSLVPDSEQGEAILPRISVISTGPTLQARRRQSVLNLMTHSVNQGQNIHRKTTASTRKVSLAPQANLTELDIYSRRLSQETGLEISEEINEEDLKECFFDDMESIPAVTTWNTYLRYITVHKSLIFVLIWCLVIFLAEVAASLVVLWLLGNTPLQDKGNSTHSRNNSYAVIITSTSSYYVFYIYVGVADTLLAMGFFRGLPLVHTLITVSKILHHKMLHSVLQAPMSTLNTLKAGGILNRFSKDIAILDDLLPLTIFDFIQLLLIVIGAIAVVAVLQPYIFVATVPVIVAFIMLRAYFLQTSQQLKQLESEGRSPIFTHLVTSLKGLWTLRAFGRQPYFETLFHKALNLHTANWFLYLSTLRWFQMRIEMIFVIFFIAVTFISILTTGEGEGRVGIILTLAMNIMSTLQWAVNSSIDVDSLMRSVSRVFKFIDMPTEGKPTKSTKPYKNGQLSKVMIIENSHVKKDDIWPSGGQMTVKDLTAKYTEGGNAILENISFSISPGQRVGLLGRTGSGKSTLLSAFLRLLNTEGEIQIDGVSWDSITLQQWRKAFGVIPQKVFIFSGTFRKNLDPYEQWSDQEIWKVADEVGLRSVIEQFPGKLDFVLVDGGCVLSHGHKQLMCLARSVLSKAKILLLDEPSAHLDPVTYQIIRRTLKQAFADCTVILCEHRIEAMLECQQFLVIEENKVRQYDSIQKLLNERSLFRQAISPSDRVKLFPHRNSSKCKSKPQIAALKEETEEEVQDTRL

C[C@@H](O)c1nnc(C2CC(NC(=O)c3cc(-c4ccccc4)no3)C2)o1 (stereo partly shown) [Compound A]
Stand Alone activity: +++ (activity at 10 uM of 100% to <150% of the indicated relative activity treatment)
